Measured values: patent publication US20090062294A1, “HETEROARYL-SUBSTITUTED UREA MODULATORS OF FATTY ACID AMIDE HYDROLASE” (priority 2007, published 2009)
Structures can show the parent of a compound that is named as a salt.

Columns and labels:
rat FAAH = target: T1, rat FAAH (Rattus norvegicus, UniProt P97612); experiment: Assay Method 2: FAAH assay, 3H-anandamide hydrolysis in homogenate of SK-N-MC cells transfected with rat FAAH; assay type: biochemical; conditions: average of results, > = solubility limit or highest concentration tested
T1 sequence (P97612 1-579): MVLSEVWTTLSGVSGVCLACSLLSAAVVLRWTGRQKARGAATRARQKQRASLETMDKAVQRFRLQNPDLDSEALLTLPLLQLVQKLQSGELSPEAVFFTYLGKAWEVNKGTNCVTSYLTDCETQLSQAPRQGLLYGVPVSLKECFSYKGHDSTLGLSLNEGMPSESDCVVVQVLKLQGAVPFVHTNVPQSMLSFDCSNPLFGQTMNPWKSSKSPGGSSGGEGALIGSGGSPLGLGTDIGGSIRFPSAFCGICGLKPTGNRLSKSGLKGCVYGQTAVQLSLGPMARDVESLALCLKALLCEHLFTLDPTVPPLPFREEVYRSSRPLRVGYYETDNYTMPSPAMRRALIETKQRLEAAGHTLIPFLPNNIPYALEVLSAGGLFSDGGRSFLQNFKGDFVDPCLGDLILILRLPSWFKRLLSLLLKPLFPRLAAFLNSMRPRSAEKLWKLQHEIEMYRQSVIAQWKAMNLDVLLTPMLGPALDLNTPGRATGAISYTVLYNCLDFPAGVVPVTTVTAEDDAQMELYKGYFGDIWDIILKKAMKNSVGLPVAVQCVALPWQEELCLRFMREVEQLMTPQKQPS
In short: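 Homogenate of SK-N-MC cells stably transfected with rat FAAH cDNA (G418-selected clones) in pH 9 Tris/EDTA/glycerol/Triton buffer. Incubated with compound and 80 nM final [3H]-anandamide for 1 h at rt. Released [3H]-ethanolamine separated from substrate on activated charcoal filters and counted by scintillation.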

FAAH = target: T2, FAAH (Homo sapiens, UniProt O00519); experiment: Assay Method 1: FAAH assay, 3H-anandamide hydrolysis in homogenate of T84 cells or SK-N-MC cells transfected with human FAAH; assay type: biochemical; conditions: average of results, > = solubility limit or highest concentration tested
T2 sequence (O00519 1-579): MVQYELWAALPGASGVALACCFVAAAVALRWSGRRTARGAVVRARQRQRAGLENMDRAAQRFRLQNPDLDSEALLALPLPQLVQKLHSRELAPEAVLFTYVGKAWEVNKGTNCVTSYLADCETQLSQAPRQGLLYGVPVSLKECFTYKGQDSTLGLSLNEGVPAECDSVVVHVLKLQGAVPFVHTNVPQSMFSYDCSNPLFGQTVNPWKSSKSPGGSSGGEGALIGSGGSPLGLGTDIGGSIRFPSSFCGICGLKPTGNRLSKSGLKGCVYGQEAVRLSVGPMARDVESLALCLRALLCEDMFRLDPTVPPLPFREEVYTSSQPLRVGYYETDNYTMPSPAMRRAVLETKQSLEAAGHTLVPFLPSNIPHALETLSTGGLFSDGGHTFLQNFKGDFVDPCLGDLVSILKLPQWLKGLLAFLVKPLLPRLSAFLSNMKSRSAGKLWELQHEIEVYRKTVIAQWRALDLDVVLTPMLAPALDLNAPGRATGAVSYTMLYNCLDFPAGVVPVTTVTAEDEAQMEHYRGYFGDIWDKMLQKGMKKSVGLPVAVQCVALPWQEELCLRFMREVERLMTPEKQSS
In short: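 Homogenates of T84 cells or of SK-N-MC cells stably transfected with human FAAH (G418-selected) were prepared in pH 9 Tris/EDTA/glycerol/Triton buffer. They were incubated with compound and 80 nM final ^3H-anandamide for 1 h at rt. Released ^3H-ethanolamine was separated on activated charcoal and counted by scintillation.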

Row | IC50 (rat FAAH) [nM] | IC50 (FAAH) [nM] | Compound
1 | 8000 | 500 | O=C(Nc1cnccn1)N1CCN(Cc2ccc(Br)cc2)CC1 [Example 212, 4-(4-Bromobenzyl)-N-pyrazin-2-ylpiperazine-1-carboxamide]
2 | 240 | 40 | O=C(Nc1cnccn1)N1CCN(Cc2cccc(Oc3ccc4ncccc4c3)c2)CC1 [Example 232, N-Pyrazin-2-yl-4-[3-(quinolin-6-yloxy)benzyl]piperazine-1-carboxamide]
3 | 17 | 70 | O=C(Nc1nn[nH]n1)N1CCN(Cc2cccc(Oc3ccc4c(c3)OC(F)(F)O4)c2)CC1 [Example 189, 4-{3-[(2,2-Difluoro-1,3-benzodioxol-5-yl)oxy]benzyl}-N-2H-tetrazol-5-ylpiperazine-1-carboxamide]
4 | 160 | 330 | O=C(Nc1nn[nH]n1)N1CCN(Cc2cccc(Oc3cccc(C(F)(F)F)c3)c2)CC1 [Example 186, N-2H-Tetrazol-5-yl-4-{3-[3-(trifluoromethyl)phenoxy]benzyl}piperazine-1-carboxamide]
5 | 430 | 1400 | O=C(Nc1nn[nH]n1)N1CCN(Cc2cc3ccccc3s2)CC1 [Example 183, 4-Benzo[b]thiophen-2-ylmethyl-piperazine-1-carboxylic acid (2H-tetrazol-5-yl)-amide]
6 | > 10000 | 3000 | O=C(Nc1cnccn1)N1CCN(Cc2ccc3c(c2)OCO3)CC1 [Example 211, 4-(1,3-Benzodioxol-5-ylmethyl)-N-pyrazin-2-ylpiperazine-1-carboxamide]
7 | 225 | 106 | O=C(Nc1noc2ccccc12)N1CCN(Cc2cccc(Oc3ccc(Cl)c(C(F)(F)F)c3)c2)CC1 [Example 205, 4-[3-(4-Chloro-3-trifluoromethyl-phenoxy)-benzyl]-piperazine-1-carboxylic acid benzo[d]isoxazol-3-ylamide trifluoroacetic acid salt]
8 | 340 | 1700 | O=C(Nc1nn[nH]n1)N1CCN(Cc2ccc(Cl)c(Cl)c2)CC1 [Example 182, 4-(3,4-Dichloro-benzyl)-piperazine-1-carboxylic acid (2H-tetrazol-5-yl)-amide]
9 | 3600 | 130 | O=C(Nc1cnccn1)N1CCN(Cc2cccc(Oc3ccc(F)c(F)c3)c2)CC1 [Example 231, 4-[3-(3,4-Difluorophenoxy)benzyl]-N-pyrazin-2-ylpiperazine-1-carboxamide]
10 | 90 | 15 | O=C(Nc1cnccn1)N1CCN(Cc2cccc(Oc3ccc(OCC(F)(F)F)cc3)c2)CC1 [Example 214, N-Pyrazin-2-yl-4-{3-[4-(2,2,2-trifluoroethoxy)phenoxy]benzyl}-piperazine-1-carboxamide]

The remaining lines, values behind:

Row | Compound | IC50 (rat FAAH) [nM] | IC50 (FAAH) [nM]
11 | O=C(Nc1noc2ccccc12)N1CCN(Cc2cccc(OCc3ccccc3)c2)CC1 [Example 99, N-1,2-Benzisoxazol-3-yl-4-[3-(benzyloxy)benzyl]piperazine-1-carboxamide] | 260 | 16
12 | O=C(Nc1noc2ccccc12)N1CCN(Cc2ccc3ccccc3c2)CC1 [Example 123, 4-Naphthalen-2-ylmethyl-piperazine-1-carboxylic acid benzo[d]isoxazol-3-ylamide] | 40 | 20
13 | O=C(Nc1noc2ccccc12)N1CCN(Cc2cccc(C#Cc3ccccc3Br)c2)CC1 [Example 67, N-1,2-Benzisoxazol-3-yl-4-{3-[(2-bromophenyl)-ethynyl]benzyl}-piperazine-1-carboxamide] | 52 | 6
14 | O=C(Nc1noc2ccccc12)N1CCN(Cc2ccc(Br)c(F)c2)CC1 [Example 115, N-1,2-Benzisoxazol-3-yl-4-(4-bromo-3-fluorobenzyl)piperazine-1-carboxamide] | 25 | 40
15 | O=C(Nc1noc2ccccc12)N1CCN(Cc2cccc(Oc3ccc(S(=O)(=O)C(F)(F)F)cc3)c2)CC1 [Example 132, N-1,2-Benzisoxazol-3-yl-4-(3-{4-[(trifluoromethyl)sulfonyl]phenoxy}-benzyl)piperazine-1-carboxamide] | 5 | 23
16 | O=C(Nc1cc[nH]n1)N1CCN(Cc2cccc(Oc3ccc(Cl)c(Cl)c3)c2)CC1 [Example 54, 4-[3-(3,4-Dichloro-phenoxy)-benzyl]-piperazine-1-carboxylic acid (1H-pyrazol-3-yl)-amide trifluoroacetic acid salt] | 50 | 370
17 | O=C(Nc1ccn[nH]1)N1CCC(Cc2ccc3ccccc3c2)CC1 [Example 14, 4-Naphthalen-2-ylmethyl-piperidine-1-carboxylic acid (2H-pyrazol-3-yl)-amide] | 63 | 218
18 | O=C(Nc1cnccn1)N1CCN(Cc2cccc(C#Cc3ccccc3Cl)c2)CC1 [Example 78, 4-{3-[(2-Chlorophenyl)ethynyl]benzyl}-N-pyrazin-2-ylpiperazine-1-carboxamide hydrochloride salt] | 410 | 59
19 | O=C(Nc1ccon1)N1CCC(Cc2ccc3ccccc3c2)CC1 [Example 11, 4-Naphthalen-2-ylmethyl-piperidine-1-carboxylic acid isoxazol-3-ylamide] | 170 | 1000
20 | N#Cc1cccc(C#Cc2cccc(CN3CCN(C(=O)Nc4noc5ccccc45)CC3)c2)c1 [Example 88, N-1,2-Benzisoxazol-3-yl-4-{3-[(3-cyanophenyl)ethynyl]benzyl}piperazine-1-carboxamide] | 65 | 15
21 | O=C(Nc1cccc2nsnc12)N1CCN(Cc2cccc(Oc3cc(Cl)cc(Cl)c3)c2)CC1 [Example 39, 4-[3-(3,5-Dichloro-phenoxy)-benzyl]-piperazine-1-carboxylic acid benzo[1,2,5]thiadiazol-4-ylamide trifluoroacetic acid salt] | 573 | 310
22 | O=C(Nc1noc2ccccc12)N1CCN(Cc2cccc(C#Cc3cc(Cl)ccc3Cl)c2)CC1 [Example 84, N-1,2-Benzisoxazol-3-yl-4-{3-[(2,5-dichlorophenyl)ethynyl]benzyl}-piperazine-1-carboxamide] | 295 | 16
23 | O=C(Nc1noc2ccccc12)N1CCN(Cc2ccc(OC(F)(F)F)c(Cl)c2)CC1 [Example 107, N-1,2-Benzisoxazol-3-yl-4-[3-chloro-4-(trifluoromethoxy)benzyl]-piperazine-1-carboxamide] | 37 | 80
24 | N#Cc1cccc(Oc2cccc(CN3CCN(C(=O)Nc4ccon4)CC3)c2)c1 [Example 139, 4-[3-(3-Cyanophenoxy)benzyl]-N-isoxazol-3-ylpiperazine-1-carboxamide] | > 10000 | 860
25 | N#Cc1c(F)cccc1C#Cc1cccc(CN2CCN(C(=O)Nc3noc4ccccc34)CC2)c1 [Example 91, N-1,2-Benzisoxazol-3-yl-4-{3-[(2-cyano-3-fluorophenyl)ethynyl]-benzyl}piperazine-1-carboxamide] | 21 | 30
26 | O=C(Nc1ccon1)N1CCN(Cc2ccc3ccccc3c2)CC1 [Example 144, N-Isoxazol-3-yl-4-(naphthalen-2-ylmethyl)piperazine-1-carboxamide] | 3000 | 350
27 | O=C(Nc1noc2ccccc12)N1CCN(Cc2cccc(C#Cc3cc(Cl)cc(Cl)c3)c2)CC1 [Example 83, N-1,2-Benzisoxazol-3-yl-4-{3-[(3,5-dichlorophenyl)ethynyl]benzyl}-piperazine-1-carboxamide] | 20 | 35
28 | O=C(Nc1ccon1)N1CCN(Cc2cccc(Oc3ccc(C(F)(F)F)cc3)c2)CC1 [Example 161, N-isoxazol-3-yl-4-{3-[4-(trifluoromethyl)phenoxy]benzyl}piperazine-1-carboxamide] | 160 | 4
